This assay deals with RET tyrosine kinase (Homo sapiens (Human), UniProt P07949). Description: Assay of small molecular compounds for inhibiting the activity of RET kinase (LANCE TR-FRET). In general terms: In TR-FRET formats the signal depends on donor and acceptor labels being close together.

pIC50: −log10 of the molar value. Like-named read-outs stand apart in the source and are kept apart here.

Consider 22 compounds from patent US11479559B2, “Urea-substituted aromatic ring-linked dioxinoquinoline compounds, preparation method and uses thereof” (BEIJING SCITECH-MQ PHARMACEUTICALS LIMITED, priority 2018, dated 2022).

Chain of RET tyrosine kinase (P07949 29-1114): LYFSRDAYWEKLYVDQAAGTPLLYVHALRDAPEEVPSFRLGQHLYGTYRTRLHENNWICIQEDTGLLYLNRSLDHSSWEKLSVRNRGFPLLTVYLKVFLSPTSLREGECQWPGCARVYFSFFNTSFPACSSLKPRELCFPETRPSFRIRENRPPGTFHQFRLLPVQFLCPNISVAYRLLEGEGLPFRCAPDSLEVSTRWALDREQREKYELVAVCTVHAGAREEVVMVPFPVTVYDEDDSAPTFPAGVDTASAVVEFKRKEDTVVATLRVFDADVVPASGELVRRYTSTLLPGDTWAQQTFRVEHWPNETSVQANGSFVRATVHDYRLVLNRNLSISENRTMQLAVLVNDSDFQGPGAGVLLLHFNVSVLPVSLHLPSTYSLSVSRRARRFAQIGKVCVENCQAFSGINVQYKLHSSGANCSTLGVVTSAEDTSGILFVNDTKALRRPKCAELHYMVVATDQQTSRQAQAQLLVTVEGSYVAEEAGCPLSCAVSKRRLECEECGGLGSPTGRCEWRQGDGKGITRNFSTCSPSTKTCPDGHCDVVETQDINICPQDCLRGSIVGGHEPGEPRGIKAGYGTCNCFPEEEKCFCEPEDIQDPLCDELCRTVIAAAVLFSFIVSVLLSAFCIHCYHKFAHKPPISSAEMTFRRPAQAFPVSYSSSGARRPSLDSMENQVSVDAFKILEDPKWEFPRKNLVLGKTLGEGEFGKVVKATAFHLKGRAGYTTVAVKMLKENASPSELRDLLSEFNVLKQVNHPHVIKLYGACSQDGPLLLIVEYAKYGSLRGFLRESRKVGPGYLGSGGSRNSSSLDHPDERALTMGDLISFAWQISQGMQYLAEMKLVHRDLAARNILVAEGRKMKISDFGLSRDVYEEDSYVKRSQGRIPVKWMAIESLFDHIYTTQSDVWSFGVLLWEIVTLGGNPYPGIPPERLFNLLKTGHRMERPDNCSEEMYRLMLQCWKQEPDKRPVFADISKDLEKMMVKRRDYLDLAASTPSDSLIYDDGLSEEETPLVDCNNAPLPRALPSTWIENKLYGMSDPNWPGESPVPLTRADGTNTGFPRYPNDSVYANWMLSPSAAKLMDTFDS
Experimental: The assay is based on the LANCE TR-FRET technology of Perkin Elmer Inc., and the assay method is as follows:
2.5 μL of the gradient-diluted compounds were taken with a transfer pipette to a 384-well plate.
Addition of enzyme: 5 μL of 2× RET kinase solution (concentration was 0.8 nM) was taken with a transfer pipette to the corresponding reaction well of the 384-well plate, mixed well and pre-reacted at room temperature for 30 minutes.
2.5 μL 4× Ultra ULight™-JAK-1 (Tyr1023) Peptide (concentration was 200 nM)/ATP (concentration was 40 μM) mixture was taken with a transfer pipette to the corresponding reaction well of the 384-well plate.
The final concentration of DMSO in the reaction system was 4%.
The mixture was mixed well and then centrifuged and reacted at room temperature in dark for 60 min.
The 384-well plate was placed into the Envision plate reader and the signal was detected using the appropriate program.

Regarding `COc1cc2nccc(Oc3ccc(NC(=O)NC(C)C)c(Cl)c3)c2c2c1OCCO2` [Example 82, 1-(2-chloro-4-((5-methoxy-2,3-dihydro-[1,4]dioxino[2,3-f]quinolin-10-yl)oxy)phenyl)-3-isopropylurea], the pIC50 (usually the IC50 on a negative log10 scale, so that one unit is a factor of ten) (read-out: RET IC50) is more than 7.30.
Compound `COc1cc2nccc(Oc3ccc(NC(=O)Nc4ccc(F)cc4)cc3)c2c2c1OCCO2` [Example 3, 1-(4-fluorophenyl)-3-(4-((5-methoxy-2,3-dihydro-[1,4]dioxino[2,3-f]quinolin-10-yl)oxy)phenyl)urea] had a pIC50 of 6.30 to 7.30.
The same measure, in the same setting: for `COCCOc1cc2nccc(Oc3ccc(NC(=O)NC4CCCC4)c(Cl)c3)c2c2c1OCCO2` [Example 71, 1-(2-chloro-4-((5-(2-methoxyethoxy)-2,3-dihydro-[1,4]dioxino[2,3-f]quinolin-10-yl)oxy)phenyl)-3-cyclopentylurea] the value was more than 7.30.
Regarding `COc1cc2nccc(Oc3ccc(NC(=O)NC4CCCC4)c(Cl)c3)c2c2c1OCCO2` [Example 69, 1-(2-chloro-4-((5-methoxy-2,3-dihydro-[1,4]dioxino[2,3-f]quinolin-10-yl)oxy)phenyl)-3-cyclopentylurea], where the note is “read-out: RET IC50”, the pIC50 was more than 7.30.
As to `COc1cc2nccc(Oc3ccc(NC(=O)Nc4cc(C(F)(F)F)ccc4F)cc3)c2c2c1OCCO2` [Example 2, 1-(2-fluoro-5-(trifluoromethyl)phenyl)-3-(4-((5-methoxy-2,3-dihydro-[1,4]dioxino[2,3-f]quinolin-10-yl)oxy)phenyl)urea], where the note is “read-out: RET IC50”, the pIC50 was more than 7.30.
As for `COc1cc2nccc(Oc3ccc(NC(=O)Nc4ccc(Cl)c(C(F)(F)F)c4)c(F)c3)c2c2c1OCCO2` [Example 6, 1-(4-chloro-3-(trifluoromethyl)phenyl)-3-(2-fluoro-4-((5-methoxy-2,3-dihydro-[1,4]dioxino[2,3-f]quinolin-10-yl)oxy)phenyl)urea], the pIC50 (read-out: RET IC50) was more than 7.30.
Still for that read-out and setting: for `COCCCCCCOc1cc2nccc(Oc3ccc(NC(=O)Nc4ccc(Cl)c(C(F)(F)F)c4)cc3)c2c2c1OCCO2` [Example 29, 1-(4-chloro-3-(trifluoromethyl)phenyl)-3-(4-((5-((6-methoxyhexyl)oxy)-2,3-dihydro-[1,4]dioxino[2,3-f]quinolin-10-yl)oxy)phenyl)urea] the value was more than 7.30; for `CC(C)Oc1cc2nccc(Oc3ccc(NC(=O)NC4CC4)c(Cl)c3)c2c2c1OCCO2` [Example 44, 1-(2-chloro-4-((5-isopropoxy-2,3-dihydro-[1,4]dioxino[2,3-f]quinolin-10-yl)oxy)phenyl)-3-cyclopropylurea], more than 7.30; for `O=C(Nc1ccc(Oc2ccnc3cc(OCCCN4CCOCC4)c4c(c23)OCCO4)cc1)Nc1cc(C(F)(F)F)ccc1F` [Example 76, 1-(2-fluoro-5-(trifluoromethyl)phenyl)-3-(4-((5-(3-morpholinopropoxy)-2,3-dihydro-[1,4]dioxino[2,3-f]quinolin-10-yl)oxy)phenyl)urea], more than 7.30.
Consider `COCCOc1cc2nccc(Oc3ccc(NC(=O)Nc4cc(C(F)(F)F)ccc4F)cc3)c2c2c1OCCO2` [Example 34, 1-(2-fluoro-5-(trifluoromethyl)phenyl)-3-(4-((5-(2-methoxyethoxy)-2,3-dihydro-[1,4]dioxino[2,3-f]quinolin-10-yl)oxy)phenyl)urea], for which the pIC50 was more than 7.30.
The compound `O=C(Nc1ccc(Oc2ccnc3cc(OCCCN4CCOCC4)c4c(c23)OCCO4)cc1Cl)NC1CCCC1` [Example 75, 1-(2-chloro-4-((5-(3-morpholinopropoxy)-2,3-dihydro-[1,4]dioxino[2,3-f]quinolin-10-yl)oxy)phenyl)-3-cyclopentylurea] had a pIC50 of more than 7.30.
`O=C(Nc1ccc(Oc2ccnc3cc(OCCCN4CCOCC4)c4c(c23)OCCO4)c(F)c1)Nc1ccc(Cl)c(C(F)(F)F)c1` [Example 41, 1-(4-chloro-3-(trifluoromethyl)phenyl)-3-(3-fluoro-4-((5-(3-morpholinopropoxy)-2,3-dihydro-[1,4]dioxino[2,3-f]quinolin-10-yl)oxy)phenyl)urea]: the pIC50 was 6.30 to 7.30.
Still for that read-out and setting: for `COCCCOc1cc2nccc(Oc3ccc(NC(=O)Nc4ccc(Cl)c(C(F)(F)F)c4)cc3F)c2c2c1OCCO2` [Example 38, 1-(4-chloro-3-(trifluoromethyl)phenyl)-3-(3-fluoro-4-((5-(3-methoxypropoxy)-2,3-dihydro-[1,4]dioxino[2,3-f]quinolin-10-yl)oxy)phenyl)urea] the value was 6.30 to 7.30.
For `COCCOc1cc2nccc(Oc3ccc(NC(=O)Nc4ccc(Cl)c(C(F)(F)F)c4)cc3)c2c2c1OCCO2` [Example 8, 1-(4-chloro-3-(trifluoromethyl)phenyl)-3-(4-((5-(2-methoxyethoxy)-2,3-dihydro-[1,4]dioxino[2,3-f]quinolin-10-yl)oxy)phenyl)urea], the pIC50 (read-out: RET IC50) is more than 7.30.
As to `O=C(Nc1ccc(Oc2ccnc3cc(OCCCN4CCS(=O)(=O)CC4)c4c(c23)OCCO4)cc1)Nc1ccc(Cl)c(C(F)(F)F)c1` [Example 23, 1-(4-chloro-3-(trifluoromethyl)phenyl)-3-(4-((5-(3-(1,1-dioxothiomorpholino)propoxy)-2,3-dihydro-[1,4]dioxino[2,3-f]quinolin-10-yl)oxy)phenyl)urea], the pIC50 was 6.30 to 7.30.
Same read-out and setting: for `O=C(Nc1ccc(Oc2ccnc3cc(OC4CCOC4)c4c(c23)OCCO4)cc1)Nc1ccc(Cl)c(C(F)(F)F)c1` (stereo not shown) [Example 32, 1-(4-chloro-3-(trifluoromethyl)phenyl)-3-(4-((5-((tetrahydrofuran-3-yl)oxy)-2,3-dihydro-[1,4]dioxino[2,3-f]quinolin-10-yl)oxy)phenyl)urea] the value was 6.30 to 7.30.
On to `COc1cc2nccc(Oc3ccc(NC(=O)NC4CCC4)c(Cl)c3)c2c2c1OCCO2` [Example 68, 1-(2-chloro-4-((5-methoxy-2,3-dihydro-[1,4]dioxino[2,3-f]quinolin-10-yl)oxy)phenyl)-3-cyclobutylurea], for which the pIC50 (read-out: RET IC50) is more than 7.30.
The same measure, in the same setting: for `CCOc1cc2nccc(Oc3ccc(NC(=O)Nc4ccc(Cl)c(C(F)(F)F)c4)c(F)c3)c2c2c1OCCO2` [Example 35, 1-(4-chloro-3-(trifluoromethyl)phenyl)-3-(4-((5-ethoxy-2,3-dihydro-[1,4]dioxino[2,3-f]quinolin-10-yl)oxy)-2-fluorophenyl)urea] the value was more than 7.30.
Take `CC(C)COc1cc2nccc(Oc3ccc(NC(=O)NC4CC4)c(Cl)c3)c2c2c1OCCO2` [Example 45, 1-(2-chloro-4-((5-isobutoxy-2,3-dihydro-[1,4]dioxino[2,3-f]quinolin-10-yl)oxy)phenyl)-3-cyclopropylurea]: the negative logarithm of the IC50 (pIC50) (read-out: RET IC50) was more than 7.30.
On to `COc1cc2nccc(Oc3ccc(NC(=O)Nc4ccc(F)cc4F)cc3)c2c2c1OCCO2` [Example 4, 1-(2,4-difluorophenyl)-3-(4-((5-methoxy-2,3-dihydro-[1,4]dioxino[2,3-f]quinolin-10-yl)oxy)phenyl)urea], for which the pIC50 was 6.30 to 7.30.
As to `O=C(Nc1ccc(Oc2ccnc3cc(OC4CCOCC4)c4c(c23)OCCO4)cc1)Nc1ccc(Cl)c(C(F)(F)F)c1` [Example 33, 1-(4-chloro-3-(trifluoromethyl)phenyl)-3-(4-((5-((tetrahydro-2H-pyran-4-yl)oxy)-2,3-dihydro-[1,4]dioxino[2,3-f]quinolin-10-yl)oxy)phenyl)urea], the pIC50 was 6.30 to 7.30.
Still for that read-out and setting: for `N#CCOc1cc2nccc(Oc3ccc(NC(=O)Nc4ccc(Cl)c(C(F)(F)F)c4)cc3)c2c2c1OCCO2` [Example 13, 1-(4-chloro-3-(trifluoromethyl)phenyl)-3-(4-((5-(cyanomethoxy)-2,3-dihydro-[1,4]dioxino[2,3-f]quinolin-10-yl)oxy)phenyl)urea] the value was 6.30 to 7.30.
